The values that follow come from patent publication US5151264A, “Particulate vector useful in particular for the transport of molecules with biological activity and process for its preparation” (priority 1988, dated 1992).

One series has as its system Bacillus subtilis. Nature of the series: Inhibition of Bacillus subtilis in agar medium / Petri dish (agar cylinders method). Type of series: cell-based. Here is the method: (§1) Butirosin, like erythromycin, is determined by measuring the lysis zones (agar cylinders method) in an agar medium (bioMerieux) inoculated with 1000 cfu/ml of Bacillus subtilis and incubated at 37° C. for 18 hours. The bioMerieux agar medium consists of 6 g of bio-Gelytone, 3 g of yeast extract, 1.5 g of beef extract and 15 g of agar per 1 l of distilled water. The pH of the medium is adjusted to 9.
(§2) The serum samples are deposited in the wells made in the agar medium (30 μl/well). Reference solutions representing known amounts of antibiotic are also deposited in the dish.

Series [1] can be described thus: Pharmacokinetics in plasma of free and encapsulated antibiotics in rabbits. The class given is in vivo, male rabbits of the "White New Zealand" type.
Excerpt: In order to evaluate the influence of the encapsulation on the pharmacokinetics of two antibiotics, butirosin according to Example 6 and erythromycin according to Example 13, we carried out the determination in plasma as a function of time for these two antibiotics after administration in the free form and in the encapsulated form.
The injections are given subcutaneously and intravenously to male rabbits of the "White New Zealand" type weighing approximately 3 kg. The samples are taken at the lateral vein of the ear in amounts of 200 μl of blood/sample. The blood is immediately centrifuged at 8000 rpm for 15 min. The serum is withdrawn and stored at 4° C. until used.
as §1, §2
The amounts injected are 1 ml containing 9 mg of butirosin in the free or encapsulated form.
4 ml of a physiological solution containing 5 mg of butirosin either in the free form or encapsulated in 100 mg of BVSM are injected. The solution is prepared from 8 g/l NaCl, 0.2 g/l KCl, 0.1 g/l anhydrous CaC12 (sic), 0.1 g/l MgCl2, 3.18 g/l Na2 HPO4 and 0.2 g/l KH2 PO4, adjusted to pH 7.4.
The injections are made slowly in the external vein of the ear after vasodilatation with warm water and disinfection with ethanol at […].
The amounts injected are 1 ml containing 15 mg of free or encapsulated erythromycin. For reasons of solubility, free erythromycin is dissolved in a water/ethanol (85:15) mixture.

Where [2] appears, read: Bacillus subtilis, 18 h, read-out: Diameter (standard range).

On to `CC[C@H]1OC(=O)[C@H](C)[C@@H](O[C@H]2C[C@@](C)(OC)[C@@H](O)[C@H](C)O2)[C@H](C)[C@@H](O[C@@H]2O[C@H](C)C[C@H](N(C)C)[C@H]2O)[C@](C)(O)C[C@@H](C)C(=O)[C@H](C)[C@@H](O)[C@]1(C)O` [Erythromycin, erythromycin], for which, in the series on Bacillus subtilis (setting [2]), the zone of inhibition at 10 µg/mL turned out to be 26 mm, the zone of inhibition at 25 µg/mL was found to be 29 mm, the zone of inhibition at 100 µg/mL was 31 mm and the zone of inhibition at 250 µg/mL came out at 33 mm. Moreover, in the series with Bacillus subtilis (setting [2]), the zone of inhibition at 1000 µg/mL turned out to be 37 mm. For the same compound, in series [1] (erythromycin), the “diffusion in the plasma / plasma level” value is given as “diffuses relatively slowly in the plasma”. In series [1] (erythromycin, listed as Free erythromycin), the “diffusion in the plasma / plasma level” value is on record as “higher initial level to be achieved in the plasma than the encapsulated form”.
Turning to butirosin, the “Diameter (standard range)” value is listed as 14 mm in the series with Bacillus subtilis (0.5 μg/ml); 17 mm in the series on Bacillus subtilis (1 μg/ml); 19 mm in the series on Bacillus subtilis (2 μg/ml); 22 mm in the series with Bacillus subtilis (5 μg/ml); 24 mm with Bacillus subtilis (10 μg/ml); 26 mm with Bacillus subtilis (20 μg/ml). Further, the “Diameter (standard range)” value with Bacillus subtilis (50 μg/ml) is given as 28 mm. Also, in series [1] (rabbit, in vivo, iv), the “diffusion into the plasma and elimination” value was “diffuses very rapidly into the plasma and is also eliminated very rapidly”. Also, the “diffusion in the plasma / plasma level” value in series [1] (rabbit, in vivo, sc) is recorded as “diffuses very rapidly in the plasma”. In series [1] (rabbit, in vivo, sc), the “time after which eliminated” value was determined as 6 h.
